# In patent publication US20130171161A1, “METHOD AND COMPOSITION FOR THE TREATMENT OF DISEASES CAUSED BY OR ASSOCIATED WITH HIV” (priority 2010, published 2013):
# Like-named read-outs stand apart in the source and are kept apart here.
# Tests used:
# HIV-1 LAI [1] = test: Inhibition of HIV replication (p24 level) in human peripheral blood mononuclear cells infected in vitro, Example 1; type: cell-based; conditions: Human immunodeficiency virus 1, PBMC; 1000 nM added 24 hours before infection; day 7; read-out: inhibition of HIV replication (p24 in supernatant)
# Experimental: The assessment of antiretroviral activity of ultra low-dose of rabbit polyclonal antibodies to CD4 receptor (a mixture of homoeopathic dilutions C12+C30+C50) (ULD Ab CD4)), was carried out using human peripheral blood mononuclear cells infected with the strain HIV-1 LAI in vitro.
# Human peripheral blood mononuclear cells were isolated from blood of a seronegative healthy donor by centrifugation on a Ficoll-Hypaque density gradient. The cells were stimulated for 3 days with 1 μg/mL of phytohemagglutinin P and 5 IU/mL of recombinant human interleukin-2.
# In order to assess antiretroviral activity the products were placed in a well containing 100 μL of activated mononuclears 24 hours before or 15 min after cell infection with the strain HIV-1-LAI at the dose of 100 TCID50 (50 μL inoculum of the strain HIV-1-LAI). Before adding to a well, ULD Ab CD4 (12.5 μL) or reference azidotimidine (1000 nM) were mixed with RPMI1640 medium (DIFCO) to achieve a final probe volume of 50 μL
# The supernatant fluids were collected on day 7 after infection of cells. The products' activity was measured by the inhibition of HIV replication which was assessed by the level of core nucleocapsid protein p24 in the supernatant fluid from human peripheral blood mononuclear cells using Retrotek Elisa kit.
# HIV-1 LAI [2] = test: Inhibition of HIV-reverse transcriptase activity in supernatant of infected human peripheral blood mononuclear cells, Example 2; type: cell-based; conditions: 8 nM; added 15-30 minutes after infection
# Experimental: The assessment of antiretroviral activity of ultra low-dose rabbit polyclonal antibodies to CD4 (a mixture of homoeopathic dilutions C12+C30+C50) (hereinafter referred to as “ultra low-dose antibodies to CD4) was carried out using human peripheral blood mononuclear cells infected with the strain HIV-1 LAI in vitro. Azidothymidine (Sigma—AZ169-100 mg, lot 107K1578) was used as a comparator product.
# Human peripheral blood mononuclear cells were isolated from blood of a seronegative healthy donor by centrifugation on a Ficoll-Hypaque density gradient. The cells were stimulated for 3 days with 1 μg/mL of phytohemagglutinin P and 5 IU/mL of recombinant human interleukin-2 in RPMI1640 (DIFCO) medium supplemented with 10% fetal calf serum (the complement was removed by heating for 45 minutes at 56° C.), 1% antibiotic solution (PSN Gibco containing 50 μg/mL of penicillin, 50 μg/mL of streptomycin and 100 μg/mL of neomycin). […]
# The products' efficiency was established by the inhibition of HIV replication which was assessed by HIV-reverse transcriptase activity in the supernatant fluid from human peripheral blood mononuclear cells using the HIV RT RetroSys kit made by INNOVAGEN (Lot 10-059C). […]
# HIV-strain-1-LAI = test: Inhibition of HIV replication (p24 content) in infected mononuclear cells of human blood, Example 3; type: cell-based, HIV-1; conditions: 1000 nM, day 7, read-out: inhibition of HIV reaction (p24 in supernatant)
# Excerpt: The experimental study involved the affine purified rabbit polyclonal antibodies to the human IFN-gamma. The affine purified rabbit polyclonal antibodies to the human gamma interferon were used for development of the (potentiated) antibodies to the gamma interferon in a very-low-dose in the form of serial dilutions C12+C30+C50, obtained in accordance with a homeopathic technology (hereinafter referred to as Ab to IFN-γ in VLD).
# Antiviral activity of the composition under review Ab to IFN-γ in VLD and azidothymidine (preparation, based on an active substance of Zidovudine) was studied within the context of mononuclear cells of the human blood, infected in vitro with the HIV-strain-1-LAI. The efficiency of replicating inhibition of HIV was assessed according to the content of a main nucleocapsid protein p24 HIV in the supernatant fluid of the mononuclear cells of the human peripheral blood. […]
# Supernatant fluid of the cell culture was collected on the seventh (7) day subsequent to the contamination. The efficiency of the preparations was assessed according to the inhibition of HIV reaction, in its turn assessed in accordance with the content of a main nucleocapsid protein p24 HIV in the supernatant cells by method of IFA, immunofluorescent assay (Retrotek Elisa kit).
smiles,measurement,setting,value
Cc1cn([C@H]2C[C@H](N=[N+]=[N-])[C@@H](CO)O2)c(=O)[nH]c1=O [Azidothymidine],inhibition at 1 µM,HIV-1 LAI [1],99%
same,Inhibition of HIV-reverse transcriptase activity (% of control) Day 7,HIV-1 LAI [2],58 ± 7 % of control
same,inhibition at 1 µM,"HIV-strain-1-LAI; Human immunodeficiency virus 1, 168 h, introduced 24 prior to contamination",99%
same,inhibition at 1 µM,"HIV-strain-1-LAI; Human immunodeficiency virus 1, introduced 15 minutes after contamination",99 ± 1%
